“Also recorded” adds a separate entry of the source.
Key:
[1] = Cochlear and plasma distribution after TT administration in rats (UPLC-ESI/MS/MS); assay type: in vivo, rat
Description: Cochleae were harvested and rinsed at several timepoints after intratympanic injection of drug product. Drug concentration (y axis) in cochlear homogenates is expressed as nanograms LPT99 per gram of cochlear homogenate.
LPT99 cochlear distribution after TT administration was studied in rats. […] LPT99 concentration was quantified with an ultra-performance liquid chromatography tandem mass spectrometry (UPLC-ESI/MS/MS) system.
Distribution of LPT99 was investigated in cochlea and plasma after a single TT administration in rats. The inhibitor was administered at 50, 100, or 200 μM (dissolved in 5% hydroxypropyl cyclodextrin in physiological serum).

[2] = test system: opioid kOP; experiment: Off-target panel: kOP; assay type: binding
Protocol: (§1) To identify off-target activities of LPT99, its selectivity against a panel of receptors (44 G-protein-coupled receptors [GPCR] and 4 non-GPCR), 4 ion channels, and 3 transporters were analyzed. The cell line, HEI-OC1 (house ear institute organ of Corti 1), which expresses several characteristic markers of the organ of Corti sensory cells (Kalinec, et al. , Audiol. Neurootol. 2003, 8(4), 177-89), was used to evaluate the efficacy of LPT99 in preventing apoptosis due to […]. Cells were pre-incubated with LPT99, followed by […] for 24 hours.
(§2) For 14 of the tested targets—adenosine receptor 3 (A3); cholecystokinin: cholecystokinin receptor 1 (CCK1); melatonin receptor (MT1); neurokinin (NK2 and NK3); opioid (kOP and mOP); serotonin receptors (5HT-1A, 5HT-2A, 5HT−2B and 5HT−7); and vasopressin (V1A; Na+channel site 2 and Cl-GABA-gated channel)—the LPT99 affinity was >50%. At 1 μM, the inhibition of 13 of these targets was <50%, indicating a very low affinity with LPT99.

[3] = test system: HEI-OC1 cells; experiment: Release of mitochondrial cyt c in HEI-OC1 cells with CisPt (flow cytometry); assay type: cell-based
Protocol: Flow cytometry was also used to characterize the effect of LPT99 in the release of mitochondrial cyt c in HEI-OC1 cells in vitro with CisPt prevention. Results
The effect of LPT99 on proliferation of non-apoptotic cells was studied. A549 cells were cultured in the presence of LPT99 for up to 6 days; the cell number was monitored by flow cytometry, and doubling time was calculated.

[4] = Metabolic profile and stability in microsomal and S9 hepatic fractions; assay type: in vitro ADME, human, dog, rabbit, rat, and mouse
Description: The metabolic profile and stability of LPT99 was characterized in human, dog, rabbit, rat, and mouse microsomal and S9 fractions, and in human cytosolic fractions.

[5] = target: T1, hERG (Homo sapiens, UniProt Q12809); experiment: hERG automated patch clamp assay in hERG-CHO cells; assay type: cell-based; conditions: detection limit 3.2 nM
T1 construct: expressed in transfected cells; host or cells: CHO
Description: The potential cardiotoxicity of LPT99 was investigated in an assay using the hERG-CHO cells transfected with the automated patch clamp assay.

[6] = Toxicokinetic assessment in the acute IP toxicity study; assay type: in vivo, rat; conditions: all tested dose levels
Protocol: LPT99 was suspended in vehicle [0.5% w/v methylcellulose and 0.1% v/v TWEEN® 80 in Milli-Q water] and administered intraperitoneally to Sprague-Dawley rats as a single dose at the doses of 100 (low—G2/G2TK), 300 (mid—G3/G3TK), and 750 (high—G4/G4TK) mg/kg body weight. The rats in vehicle control groups (G1/G1TK) received the vehicle alone. The dose volume administered was at an equivolume of 10 mL/kg body weight for all groups.
The main toxicity groups consist of 15 rats/sex/group in G1 and G4 groups and 10 rats/sex/group in G2 and G3 groups. The toxicokinetic groups consisted of 6 males and 6 female rats each for the prevention groups, whereas the vehicle control group had 3 male and 3 female rats.
Gender related differences were observed.

[7] = Plasma concentrations after TT administration of LPT99-CD in female Wistar rats; assay type: in vivo, rat
[8] = test system: BALB/c 3T3 mouse fibroblasts; experiment: In vitro phototoxicity in BALB/c 3T3 mouse fibroblasts; assay type: cell-based; conditions: ≤100 μM
Protocol: An in vitro experiment was performed in BALB/c 3T3 mouse fibroblasts to determine the phototoxic potential of LPT99 at concentrations of ≤100 μM in 3T3L1 cells.

[9] = test system: Cl-GABA-gated channel; experiment: Off-target panel: Cl- GABA-gated channel; assay type: binding
Protocol: as §1, §2

[10] = GLP auditory safety study in rats after single TT administration; conditions: rat, in vivo
Protocol: The study consisted of 10 groups of rats: 6 groups for toxicology (Groups 1 to 6, 20 males and 20 females per group), and 4 groups for toxicokinetics (Groups 7 to 10, 6 males and 6 females per group).
All animals were assessed weekly for body weights and qualitative food consumption. In addition, otoscopic evaluation of the dosing sites (tympanic membrane, Groups 1 to 6) and ABR testing for hearing function were performed at predosing; and on Days 1, 7, and/or 14. Animals in the toxicology groups (Groups 1 to 6) were sacrificed on Day 1 (10 males and 10 females per group) and Day 14 (the remaining 10 males and 10 females per group). At necropsy, terminal blood samples were tested for hematology, serum chemistry, and coagulation parameters. Gross observations were recorded, and selected organs were weighed. One ear per animal in Groups 1 to 5 was collected and processed for cytocochleogram assessment.

T1 sequence (Q12809 whole entry): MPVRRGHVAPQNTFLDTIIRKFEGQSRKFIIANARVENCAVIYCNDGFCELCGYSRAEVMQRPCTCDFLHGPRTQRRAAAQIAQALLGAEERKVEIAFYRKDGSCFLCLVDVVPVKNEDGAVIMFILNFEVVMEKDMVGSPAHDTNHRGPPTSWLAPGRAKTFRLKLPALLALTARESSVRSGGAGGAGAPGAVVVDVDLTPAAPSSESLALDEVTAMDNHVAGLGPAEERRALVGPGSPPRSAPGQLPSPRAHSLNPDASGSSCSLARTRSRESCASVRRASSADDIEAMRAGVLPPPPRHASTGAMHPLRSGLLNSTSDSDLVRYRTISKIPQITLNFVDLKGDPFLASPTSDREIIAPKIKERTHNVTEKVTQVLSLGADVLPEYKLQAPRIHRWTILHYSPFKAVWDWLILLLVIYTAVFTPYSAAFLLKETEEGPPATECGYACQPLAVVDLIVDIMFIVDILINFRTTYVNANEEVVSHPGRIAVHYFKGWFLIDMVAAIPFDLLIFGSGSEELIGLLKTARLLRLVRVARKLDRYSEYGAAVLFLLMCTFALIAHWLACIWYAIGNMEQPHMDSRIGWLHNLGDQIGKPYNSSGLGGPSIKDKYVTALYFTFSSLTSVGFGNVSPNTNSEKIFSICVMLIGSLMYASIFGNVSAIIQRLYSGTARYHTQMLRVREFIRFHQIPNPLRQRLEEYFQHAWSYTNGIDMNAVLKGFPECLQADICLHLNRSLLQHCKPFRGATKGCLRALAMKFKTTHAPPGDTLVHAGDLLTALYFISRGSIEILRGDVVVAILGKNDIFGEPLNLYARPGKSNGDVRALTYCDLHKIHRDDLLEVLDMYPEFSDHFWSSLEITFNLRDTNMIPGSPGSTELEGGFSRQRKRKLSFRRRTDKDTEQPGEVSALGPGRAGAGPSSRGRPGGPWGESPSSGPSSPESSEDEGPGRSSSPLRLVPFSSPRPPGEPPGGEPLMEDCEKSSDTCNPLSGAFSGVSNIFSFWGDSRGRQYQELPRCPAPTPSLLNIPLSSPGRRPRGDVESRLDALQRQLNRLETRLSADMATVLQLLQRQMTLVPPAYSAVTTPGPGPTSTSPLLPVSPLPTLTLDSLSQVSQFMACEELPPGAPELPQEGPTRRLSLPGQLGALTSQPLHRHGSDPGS

COc1ccc2[nH]cc(CCNC(=O)CC3C(=O)N(CCc4ccc(Cl)cc4Cl)CC(=O)N3CCc3cccs3)c2c1 (stereo not shown) [LPT99, 2-(4-(2,4-dichlorophenethyl)-3,6-dioxo-1-(2-(thiophen-2-yl)ethyl)piperazin-2-yl)-N-(2-(5-methoxy-1H-indol-3-yl)ethyl)acetamide]
detection in administered cochleae ([1]; 0.5 and 1 hour, 50, 100, or 200 μM in 5% hydroxypropyl cyclodextrin): detected in all administered cochleae | LPT99 in plasma (not found; detection limit) ([1]; after TT administration of the LPT99 formulation in a hydrogel): < 2 ng/mL | concentrations in contralateral cochleae and plasma ([1]; all time points, 50, 100, or 200 μM in 5% hydroxypropyl cyclodextrin): BLLQ | LPT99 concentrations in plasma (BLLQ) ([1]; all time-points and doses): < 2 ng/mL | LPT99 concentrations in the contralateral cochleae (BLLQ) ([1]; all time-points and doses): < 3 ng/g | distribution to cochlea after TT administration ([1]; rats, FIG. 4): distributed locally to the cochlea; also recorded: distributed to cochlea in a dose-dependent manner | distribution to contralateral cochleae or plasma ([1]; rats, TT): No distribution to the contralateral cochleae or plasma was observed | inhibition kOP ([2]; 1 μM): < 50% | affinity (inhibition) kOP ([2]; 10 μM): > 50% | release of mitochondrial cyt c ([3]; HEI-OC1 cells, after CisPt alone or pre-incubated with LPT99): 68.1% ±1.0% | release of cyt c from mitochondria ([3]; cellular model of CisPt-induced apoptosis): decreased release of cyt c from mitochondria | number of metabolites formed through phase I biotransformation [4]: ≤ 9 | metabolized after 1 hour ([4]; microsomal and S9 hepatic fractions, all tested species): > 90% | safety margin (hERG IC50 vs plasma detection limit) [5]: > 1063 | exposure in females vs males [6]: 1.5-5.5 fold | plasma concentration of 3.2 nM as fraction of administered dose ([7]; 50 μM dose): 0.006% | plasma concentration of 3.2 nM as fraction of administered dose ([7]; 100 μM dose): 0.003% | plasma concentration of 3.2 nM as fraction of administered dose ([7]; 200 μM dose): 0.0016% | plasma level after TT administration (not detectable; detection limit) ([7]; TT administration): < 3.2 nM | Plasma LPT99 concentrations (BLLQ) ([7]; female Wistar rats, 1 hour and 2, 4, 7, 15 days after single 50 μL TT dose of 50, 100, or 200 μM LPT99-CD): < 2 ng/mL | cytotoxicity in presence or absence of ultraviolet-visible irradiation [8]: not cytotoxic | inhibition Cl-GABA-gated channel ([9]; 1 μM): < 50% | affinity (inhibition) Cl-GABA-gated channel ([9]; 10 μM): > 50% | hair cell loss (cytocochleogram) [10]: no reliable evidence of test-article-related hair cell loss | otoscopic scores (erythema, edema, wounds) of tympanic membranes [10]: no statistically significant changes
